Several values for one entry are separate records, joined by “and”; a condition that tells them apart may be missing. Equal entries are not always repeated.
Target: mTOR/GbL/Raptor (mTORC1) (Homo sapiens, UniProt P42345)
Assay: mTOR/GbL/Raptor (mTORC1) ELISA assay
Format: biochemical
Settings: phosphorylation of 4E-BP1; 0.2 nM mTORC1, 10 μM ATP; read-out: IC50 in this assay (mTORC1 ELISA)
Summary of the method: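 Human mTORC1 (0.2 nM) phosphorylated 50 nM His-tagged 4E-BP1 with 10 µM ATP in HEPES pH 7.2 containing 10 mM MnCl2, 120 min at ambient temperature. Substrate was captured on Ni-chelate plates; phospho-4E-BP1 was detected by primary antibody and HRP secondary with luminescence.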

Row | Compound | IC50
1 | Cc1nc2ccc(-c3ccc4c(c3)CN(c3ncncc3C)CCO4)cc2[nH]1 [Example 44, 7-(2-methyl-1H-benzimidazol-6-yl)-4-(5-methylpyrimidin-4-yl)-2,3,4,5-tetrahydro-1,4-benzoxazepine] | 1000 to 2000 nM
2 | CNC(=O)c1ccc(-c2ccc3c(c2)CN(c2ncnc(C)c2Cc2ccc(F)cc2)CCO3)nc1 [Example 155, 6-(4-{5-[(4-fluorophenyl)methyl]-6-methylpyrimidin-4-yl}-2,3,4,5-tetrahydro-1,4-benzoxazepin-7-yl)-N-methylpyridine-3-carboxamide] | 250 to 1000 nM
3 | COc1ccc(-c2ccc3c(c2)CN(c2nc(CN(C)C)nc4c2CC(C)(C)CC4)CCO3)cn1 [Example 330, 1-(6,6-dimethyl-4-{7-[6-(methyloxy)pyridin-3-yl]-2,3-dihydro-1,4-benzoxazepin-4(5H)-yl}-5,6,7,8-tetrahydroquinazolin-2-yl)-N,N-dimethylmethanamine] | 250 to 1000 nM
4 | Cc1nc2ccc(-c3ccc4c(c3)CN(c3ncnc5sccc35)CCO4)cc2[nH]1 [Example 45, 7-(2-methyl-1H-benzimidazol-6-yl)-4-thieno[2,3-d]pyrimidin-4-yl-2,3,4,5-tetrahydro-1,4-benzoxazepine] | 250 to 1000 nM
5 | COc1cc2c(N3CCOc4ccc(-c5ccc6nc(C)[nH]c6c5)cc4C3)ncnc2cc1O [Example 157, 4-[7-(2-methyl-1H-benzimidazol-6-yl)-2,3-dihydro-1,4-benzoxazepin-4(5H)-yl]-6-(methyloxy)quinazolin-7-ol] | 250 to 1000 nM
6 | CCNc1nc2ccc(-c3ccc4c(c3)CN(c3ccncn3)CCO4)cc2[nH]1 [Example 277, N-ethyl-6-(4-pyrimidin-4-yl-2,3,4,5-tetrahydro-1,4-benzoxazepin-7-yl)-1H-benzimidazol-2-amine] | 1000 to 2000 nM
7 | COc1c(OCCN(C)C)ccc2c(N3CCOc4ccc(-c5ccc6nc(C)[nH]c6c5)cc4C3)ncnc12 [Example 165, N,N-dimethyl-2-({4-[7-(2-methyl-1H-benzimidazol-6-yl)-2,3-dihydro-1,4-benzoxazepin-4(5H)-yl]-8-(methyloxy)quinazolin-7-yl}oxy)ethanamine] | ≥ 2000 nM
8 | CC(C)c1nc2ccc(-c3ccc4c(c3)CN(c3ccnc5ccccc35)CCO4)cc2[nH]1 [Example 203, 7-[2-(1-methylethyl)-1H-benzimidazol-6-yl]-4-quinolin-4-yl-2,3,4,5-tetrahydro-1,4-benzoxazepine] | 1000 to 2000 nM
9 | COc1ccc2c(N3CCOc4ccc(-c5cnc(N)c(S(=O)(=O)C[C@@H](C)CO)c5)cc4C3)ncnc2c1 [Example 303, (2S)-3-[(2-amino-5-{4-[7-(methyloxy)quinazolin-4-yl]-2,3,4,5-tetrahydro-1,4-benzoxazepin-7-yl}pyridin-3-yl)sulfonyl]-2-methylpropan-1-ol] | 250 to 1000 nM
10 | Cc1nc2ncc(-c3ccc4c(c3)CN(c3ncnc(N5CCOCC5)c3C)CCO4)cc2[nH]1 [Example 551] | 250 to 1000 nM
11 | COc1cc2nccc(N3CCOc4ccc(-c5ccc(-c6ncc[nH]6)cc5)cc4C3)c2cc1OC [Example 272, 4-[6,7-bis(methyloxy)quinolin-4-yl]-7-[4-(1H-imidazol-2-yl)phenyl]-2,3,4,5-tetrahydro-1,4-benzoxazepine] | 50 to 250 nM
12 | Cc1nc2c(c(N3CCOc4ccc(-c5cnc(N)c(S(=O)(=O)N[C@@H]6CCN(C)C6)c5)cc4C3)n1)CC(C)(C)CC2 [Example 421, 2-amino-N-[(3R)-1-methylpyrrolidin-3-yl]-5-[4-(2,6,6-trimethyl-5,6,7,8-tetrahydroquinazolin-4-yl)-2,3,4,5-tetrahydro-1,4-benzoxazepin-7-yl]pyridine-3-sulfonamide] | 250 to 1000 nM
13 | CC1(C)CCc2ncnc(N3CCOc4ccc(-c5cnc(Cl)c(CS(C)(=O)=O)c5)cc4C3)c2C1 [Example 574, 7-{6-chloro-5-[(methylsulfonyl)methyl]pyridin-3-yl}-4-(6,6-dimethyl-5,6,7,8-tetrahydroquinazolin-4-yl)-2,3,4,5-tetrahydro-1,4-benzoxazepine] | 1000 to 2000 nM
14 | COc1ccc2c(N3CCOc4ccc(-c5ccc(-c6nc7ccccc7[nH]6)cc5)cc4C3)nc(C)nc2c1 [Example 240, 7-[4-(1H-benzimidazol-2-yl)phenyl]-4-[2-methyl-7-(methyloxy)quinoazlin-4-yl]-2,3,4,5-tetrahydro-1,4-benzoxazepine] | ≥ 2000 nM
15 | CCNc1nc2ccc(-c3ccc4c(c3)CN(c3ccnc5cc(F)ccc35)CCO4)cc2[nH]1 [Example 268, N-ethyl-6-[4-(7-fluoroquinolin-4-yl)-2,3,4,5-tetrahydro-1,4-benzoxazepin-7-yl]-1H-benzimidazol-2-amine] | 50 to 250 nM
16 | c1ccc2c(N3CCOc4ccc(-c5ccc6nc(C7CNC7)[nH]c6c5)cc4C3)ccnc2c1 [Example 201, 7-(2-azetidin-3-yl-1H-benzimidazol-6-yl)-4-quinolin-4-yl-2,3,4,5-tetrahydro-1H-benzoxazepine] | 1000 to 2000 nM
17 | CC(=O)Nc1nc2cc(-c3ccc4c(c3)CN(c3nc(CN(C)C)nc5c3CC(C)(C)CC5)CCO4)cnc2s1 [Example 617, N-[6-(4-{2-[(dimethylamino)methyl]-6,6-dimethyl-5,6,7,8-tetrahydroquinazolin-4-yl}-2,3,4,5-tetrahydro-1,4-benzoxazepin-7-yl)[1,3]thiazolo[5,4-b]pyridin-2-yl]acetamide] | 10 to 50 nM and 50 to 250 nM

More lines, now with the values ahead:

Row | IC50 | Compound
18 | 50 to 250 nM | COc1ccc2c(N3CCOc4ccc(-c5cnc(N)s5)cc4C3)nc(C)nc2c1 [Example 292, 5-{4-[2-methyl-7-(methyloxy)quinazolin-4-yl]-2,3,4,5-tetrahydro-1,4-benzoxazepin-7-yl}-1,3-thiazol-2-amine]
19 | ≤ 10 nM | Nc1nc2ncc(-c3ccc4c(c3)CN(c3ncnc5ccc(I)cc35)CCO4)cc2[nH]1 [Example 183, 6-[4-(6-iodoquinazolin-4-yl)-2,3,4,5-tetrahydro-1,4-benzoxazepin-7-yl]-1H-imidazo[4,5-b]pyridin-2-amine]
20 | 50 to 250 nM | c1ccc2c(N3CCOc4ccc(-c5ccc6nc[nH]c6c5)cc4C3)ncnc2c1 [Example 123, 7-(1H-benzimidazol-6-yl)-4-quinazolin-4-yl-2,3,4,5-tetrahydro-1,4-benzoxazepine]
21 | 10 to 50 nM | CC(C)(CN)CNS(=O)(=O)c1cc(-c2ccc3c(c2)CN(c2ncnc4c2CC(C)(C)CC4)CCO3)cnc1N [Example 411, 2-amino-N-(3-amino-2,2-dimethylpropyl)-5-[4-(6,6-dimethyl-5,6,7,8-tetrahydroquinazol-4-yl)-2,3,4,5-tetrahydro-1,4-benzoxazepin-7-yl]pyridine-3-sulfonamide]
22 | ≤ 10 nM | Cc1ncnc(N2CCOc3ccc(-c4ccc5[nH]c(NCCF)nc5c4)cc3C2)c1Cc1ccc(F)cc1 [Example 193, N-(2-fluoroethyl)-5-(4-{5-[(4-fluorophenyl)methyl]-6-methylpyrimidin-4-yl}-2,3,4,5-tetrahydro-1,4-benzoxazepin-7-yl)-1H-benzimidazol-2-amine]
23 | 50 to 250 nM | CN1C[C@@H]2C[C@H]1CN2S(=O)(=O)c1cc(-c2ccc3c(c2)CN(c2ncnc4c2CC(C)(C)CC4)CCO3)cnc1N [Example 518, 5-[4-(6,6-dimethyl-5,6,7,8-tetrahydroquinazolin-4-yl)-2,3,4,5-tetrahydro-1,4-benzoxazepin-7-yl]-3-{[(1S,4S)-5-methyl-2,5-diazabicyclo[2.2.1]hept-2-yl]sulfonyl}pyridin-2-amine]
24 | 10 to 50 nM | CN(C)c1ncc(-c2ccc3c(c2)CN(c2ncnc4c2CC(C)(C)CC4)CCO3)cc1NS(C)(=O)=O [Example 619, N-{2-(dimethylamino)-5-[4-(6,6-dimethyl-5,6,7,8-tetrahydroquinazolin-4-yl)-2,3,4,5-tetrahydro-1,4-benzoxazepin-7-yl]pyridin-3-yl}methanesulfonamide]
25 | 10 to 50 nM | CCOc1ncc(-c2ccc3c(c2)CN(c2ncnc4c2CC(C)(C)CC4)CCO3)cc1NS(C)(=O)=O [Example 626, N-{5-[4-(6,6-dimethyl-5,6,7,8-tetrahydroquinazolin-4-yl)-2,3,4,5-tetrahydro-1,4-benzoxazepin-7-yl]-2-(ethyloxy)pyridin-3-yl}methanesulfonamide]
26 | 10 to 50 nM | CC1(C)CCc2ncnc(N3CCOc4ccc(-c5cnc(N)c(S(=O)(=O)NC6CNC6)c5)cc4C3)c2C1 [Example 426, 2-amino-N-azetidin-3-yl-5-[4-(6,6-dimethyl-5,6,7,8-tetrahydroquinazolin-4-yl)-2,3,4,5-tetrahydro-1,4-benzoxazepin-7-yl]pyridine-3-sulfonamide]
27 | ≤ 10 nM | CC[C@H]1CCCc2c(ncnc2N2CCOc3ccc(-c4cnc5nc(C)[nH]c5c4)cc3C2)C1 [Example 490]
28 | 50 to 250 nM | COCCc1c(C)nc(CN(C)C)nc1N1CCOc2ccc(-c3cnc4sc(N)nc4c3)cc2C1 [Example 667, 6-(4-{2-[(dimethylamino)methyl]-6-methyl-5-[2-(methyloxy)ethyl]pyrimidin-4-yl}-2,3,4,5-tetrahydro-1,4-benzoxazepin-7-yl)[1,3]thiazolo[5,4-b]pyridin-2-amine]
29 | ≤ 10 nM | Cc1nc2ccc(-c3ccc4c(c3)CN(c3ncnc(C)c3C(C)c3cccc(F)c3)CCO4)cc2[nH]1 (stereo not shown) [Example 94, 4-{5-[1-(3-fluorophenyl)ethyl]-6-methylpyrimidin-4-yl}-7-(2-methyl-1H-benzimidazol-6-yl)-2,3,4,5-tetrahydro-1,4-benzoxazepine]
30 | 10 to 50 nM | CCC1CCc2nc(C)nc(N3CCOc4ccc(-c5cnc6nc(C)[nH]c6c5)cc4C3)c2C1 (stereo not shown) [Example 482, 4-(6-ethyl-2-methyl-5,6,7,8-tetrahydroquinazolin-4-yl)-7-(2-methyl-1H-imidazo[4,5-b]pyridin-6-yl)-2,3,4,5-tetrahydro-1,4-benzoxazepine]
31 | 10 to 50 nM | COCCOCc1nc2c(c(N3CCOc4ccc(-c5ccc6nc(C)[nH]c6c5)cc4C3)n1)CC(C)(C)CC2 [Example 494, 4-[6,6-dimethyl-2-({[2-(methyloxy)ethyl]oxy}methyl)-5,6,7,8-tetrahydroquinazolin-4-yl]-7-(2-methyl-1H-benzimidazol-6-yl)-2,3,4,5-tetrahydro-1,4-benzoxazepine]

From US8648066B2 (Exelixis, Inc., priority 2009, dated 2014)
